The target in this assay is T1, PTK6 (Brk) (Homo sapiens, UniProt Q13882).
T1 construct: purchased Thermo Fisher Scientific (Life Technologies) SelectScreen
Kind of assay: SelectScreen Z'LYTE. Format: biochemical. Put shortly:
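NU5455 was profiled across the SelectScreen Broad panel of kinase activity and binding assays. Z'LYTE reactions such as CSF1R ran at apparent Km ATP, while the Adapta CAMK1 assay used ATP listed as 10. Values are given as percent.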

These results are taken from article PMC6934184, “Selective DNA-PKcs inhibition extends the therapeutic index of localized radiotherapy and chemotherapy” (The Journal of Clinical Investigation, 2019).

Each structure is given as a SMILES string.

T1 sequence (Q13882 whole entry): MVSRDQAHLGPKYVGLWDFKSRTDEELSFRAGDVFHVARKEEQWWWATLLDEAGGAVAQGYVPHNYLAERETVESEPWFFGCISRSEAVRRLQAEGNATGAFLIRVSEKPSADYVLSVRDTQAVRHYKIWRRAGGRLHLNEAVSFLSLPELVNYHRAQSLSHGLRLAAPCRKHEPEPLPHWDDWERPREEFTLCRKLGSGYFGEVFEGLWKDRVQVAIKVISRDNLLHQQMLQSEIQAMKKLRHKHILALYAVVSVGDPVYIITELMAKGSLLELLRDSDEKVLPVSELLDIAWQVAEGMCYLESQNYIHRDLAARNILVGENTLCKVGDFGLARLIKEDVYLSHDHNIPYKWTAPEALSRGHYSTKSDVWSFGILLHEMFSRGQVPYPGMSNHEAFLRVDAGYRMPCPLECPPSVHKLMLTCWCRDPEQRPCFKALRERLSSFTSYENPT

Turning to `CN(C(=O)CN1CCOCC1)c1ccc2sc3c(-c4cccc5c(=O)cc(N6CC7CCC(C6)O7)oc45)cccc3c2c1` [NU5455], the inhibition at 1 µM amounted to 0.7%.
